From US10188633B2, “Identification of small molecules that facilitate therapeutic exon skipping” (The Regents of the University of California, priority 2011, dated 2019)

How the values were obtained:
mdx mice [1] = assay: Taut wire test (wire hang) in mdx mice, weekly AO with daily dantrolene; assay type: in vivo, mouse; conditions: 10 mg/kg/week AO with dantrolene 10 mg/kg/day versus AO alone, Day 18, p=0.022
Method: Weekly systemic doses of saline, 10 mg/kg of morpholino M23D (+07-18) was administered intravascularly on Day 1, 8, and 15. Dantrolene or carrier (20% DMSO in saline) was administered intraperitoneally at a dose of 10 mg/kg/day in two divided doses daily. On Day 18 functional improvement was blindly assessed by using the taut wire test. Latency to fall (in seconds) was recorded for five consecutive trials, with a one minute break occurring in between each trial. Plotted is first the average across five trials, and then the normalized average (seconds/grams) across experimental groups. Error bars represent the s.e.m.

[2] = system: human DMD exon 50 GFP based reporter; assay: BioMol high throughput screen in Ex50-GFP reporter C2C12 myoblasts, with or without AON6; assay type: cell-based, mouse
mdx mice [3] = assay: Systemic (intravenous) PMOE23 with intraperitoneal dantrolene in mdx mice, exon 23 skipping and dystrophin in multiple muscles; assay type: in vivo, mouse
Method: A systemic dose of 100 mg/kg or sub-optimal 10 mg/kg of morpholino M23D (+07-18) was administered by tail vein injection on Day 1. From Day 2-7 Dantrolene was administered intraperitoneally at a dose of 10 mg/kg/day in two divided doses. On Day 8 multiple muscles were harvested for analysis. (A) DMD exon 23 skipping was assessed as in FIG. 3. Skip/full-length mRNA ratio data were combined for all mice and for all initial muscle groups tested (quadricep, gastrocnemius, tibialis anterior and diaphragm). (B) Dystrophin protein was assessed by Western blot (Mandys8) quantitative densitometry for all muscle groups and individual mice (quadricep, gastrocnemius, tibialis anterior and diaphragm). (C) Quantitative immunohistochemistry is plotted as arbitrary units normalized to surface area for each section for all muscle groups and mice using one whole muscle cross section per animal per muscle. […] (E) Immunostaining of serial sections of treated mdx quadricep detects sarcolemmal localization of dystrophin (MANDYS8), alpha-sarcoglycan (NCL-a-sarc) and beta-dystroglycan (NCL-b-DG). […] Error bars in A-C represent the standard deviation among mice and muscles in each group (n=3 animals or n=12 total observations in saline+dantrolene and 100 mg/kg AO+DMSO; n=4 animals or n=16 observations in 10 mg/kg AO with Dantrolene or DMSO).
This enabled us to assess whether dantrolene in combination with systemic morpholino PMOE23 could enhance Dmd exon 23 skipping and induce dystrophin protein expression in multiple skeletal muscles. A single intravenous dose of 100 mg/kg PMOE23 was used as a positive control. A single intravenous dose of 10 mg/kg AO was used as a sub-optimal dose alone or in combination with twice daily dosing of 10 mg/kg/day of dantrolene intraperitoneally for the subsequent 6 days [7, 27] (n=3 in control groups and n=4 in experimental groups; Table 5).
Multiple skeletal muscles were harvested for analysis on day 7 including the quadriceps, gastrocnemius, tibialis anterior, diaphragm, triceps and heart. Muscles were assessed for: 1) increased amounts of skipped Dmd exon 23 mRNA species 2) Dystrophin protein rescue by Western blot 3) Dystrophin protein expression by quantitative immunostain, 4) appropriate subcellular localization, and 5) restoration of other components of the dystroglycan complex to the sarcolemmal membrane. To determine if dantrolene enhanced Dmd exon 23 skipping, the quantitative taqman assay was performed on RNA from each skeletal muscle.
RNA was isolated from snap frozen skeletal muscle using the QIAGEN RNAeasy Fibrous Tissue Kit.

[4] = 10 mg/kg PMOE23 IV with dantrolene 10 mg/kg/day IP

## O=C1CN(/N=C/c2ccc(-c3ccc([N+](=O)[O-])cc3)o2)C(=O)N1 [DANTROLENE]
Mdx mice [1]; listed as Dantrolene
  taut wire test, latency to fall (muscle strength): significantly increased ability of mdx mice to hang on wire
Mdx mice [1]; listed as dantrolene
  taut wire test, latency to fall (muscle strength): functional benefit
[2]
  Average Fluorescence (n = 3): 18.20
  Fluorescence Plate 1: 16.32
  Fluorescence Plate 2: 11.76
  Fluorescence Plate 3: 26.51
  activity in the −AO screen: indistinguishable from the DMSO controls
  exon skipping activity in the screen +AO: enhanced exon skipping activity
Mdx mice [3]; [4]
  Dmd exon 23 mRNA skipping, aggregate analysis of all skeletal muscle groups (excluding heart): significantly increased
  Dmd exon 23 skipping in the gastrocnemius, TA, diaphragm and quadriceps: enhanced skipping
  Dmd exon 23 skipping in the triceps: Enhancement was not apparent
Mdx mice [3]; any experimental condition
  Dmd exon 23 skipping in heart muscle: No appreciable skipping
Mdx mice [3]; pooled Western blot densitometry across quadricep, gastrocnemius, TA and diaphragm
  mean fold increase in dystrophin protein expression, PMOE23 with dantrolene relative to PMOE23 with vehicle: 3.1 fold
